Assay results: PubChem BioAssay AID743417 (Broad Institute, 2014)
Inconclusive results are not listed. Calls of active or inactive are those of the source.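 The calls were made as follows: active = compounds lowering the luciferase signal with a fitted half-maximal dose at most twice their top valid dose (cut at about 30 µM in these data); inconclusive = flat fits with moderate signal loss, or poor fits; inactive = the rest.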

tested on: Clone20 osteoblast Shn3 3'UTR firefly luciferase, 24 h; assay: Schnurri-3 3'UTR-luciferase signal suppressors – cell-based, Clone20 osteoblasts, luminescence, dry powder, set 2, dose response (AID 743417)

With `O=C1OC[C@H](Cc2ccc3c(c2)OCO3)/C1=C\c1ccc2c(c1)OCO2` as the compound, how does the AC50 read?
The AC50 was 2660 nM.

How did the AC50 turn out when `O=c1[nH]c2ccccc2n1C1CCN(C(c2cccs2)c2nnnn2Cc2ccccc2)CC1` (centres undefined) was run?
Its AC50 is 2980 nM.

`O=C(CN(C(=O)c1ccccc1Cl)C1CCCCC1)Nc1ccc(Cl)c([N+](=O)[O-])c1` was tested. Which AC50 did it give?
The AC50 was 5100 nM.

`Cc1cc(C)nc(SCC(=O)Nc2ccnc3ccccc23)n1` was tested. Which AC50 did it give?
Its AC50 is 462 nM.

`Cc1ccc(S(=O)(=O)c2ccc([N+](=O)[O-])cn2)cc1` was tested. Which AC50 did it give?
Its AC50 is 3850 nM.

How did the AC50 turn out when `CCC1CN2CCc3cc(OC)c(OC)cc3C2CC1CC1NCCc2c1[nH]c1ccc(O)cc21` (centres undefined) was run?
Its AC50 is less than 260 nM.

Which AC50 does the source give for `Cc1ccc(-c2nc3ncccc3o2)cc1NC(=O)c1sc2ccccc2c1Cl` here?
The AC50 was 5870 nM.

With `CCCCCn1c(=O)c(C(=O)NC(C)c2ccccc2)c(O)c2ccccc21` (centres undefined) as the compound, how does the AC50 read?
The AC50 was 11700 nM.

Which AC50 does the source give for `C#CCn1c(=NC(=O)c2ccc(S(=O)(=O)N3CCc4ccccc4C3)cc2)sc2cc(S(N)(=O)=O)ccc21` here?
Its AC50 is 1290 nM.

`Cc1ccccc1C(=O)NC(=S)Nc1ccc(N2CCN(C(=O)c3ccccc3)CC2)cc1` was tested. Which AC50 did it give?
Its AC50 is 1880 nM.

Which AC50 does the source give for `O=C(NCc1ccccc1)c1nc(S(=O)(=O)Cc2ccccc2)ncc1Cl` here?
Its AC50 is 1190 nM.

How did the AC50 turn out when `Cc1ccc(NC(=O)CSc2nn(-c3ccccc3)c(=S)s2)cc1S(=O)(=O)N(C)C` was run?
The AC50 was 5820 nM.

How did the AC50 turn out when `Cc1ccnc(N/C=C(/NC(=O)c2ccccc2)C(=O)N/N=C\c2ccc(F)cc2)n1` was run?
Its AC50 is > 70000 nM (inactive).

For `O=[N+]([O-])c1cc2c(c(CSc3nnc(Nc4ccccc4)s3)c1)OCOC2`, which AC50 is on record?
Its AC50 is 3620 nM.

`Cc1ccc(-n2nnnc2-c2cnc(-c3cccnc3)nc2C(F)(F)F)cc1` was tested. Which AC50 did it give?
The AC50 was 5890 nM.

With `O=[N+]([O-])c1cccc(S(=O)(=O)NCc2ccncc2)c1` as the compound, how does the AC50 read?
The AC50 was 3090 nM.

How did the AC50 turn out when `CCOC(=O)C1CCCN(S(=O)(=O)c2ccc(S(=O)(=O)N3CCCC3)cc2)C1` (centres undefined) was run?
The AC50 was 821 nM.

For `Oc1c(C(Nc2cccc(C(F)(F)F)c2)c2ccncc2)ccc2cccnc12` (centres undefined), which AC50 is on record?
The AC50 was 5800 nM.

How did the AC50 turn out when `O=C(O)c1cccc(COc2ccccc2Cl)c1` was run?
The AC50 was 1480 nM.

For `CCCCCn1c(N2CCN(c3cccc(Cl)c3)CC2)nc2c1c(=O)[nH]c(=O)n2C`, which AC50 is on record?
The AC50 was 21800 nM.

Which AC50 does the source give for `CCOc1ccc(C(=O)C(CCC(CN(C)C)C(=O)c2ccc(OCC)cc2)CN(C)C)cc1` (centres undefined) here?
Its AC50 is 1610 nM.

For `COc1cc(CSc2nnnn2-c2ccc(C)cc2)cc(OC)c1OC`, which AC50 is on record?
Its AC50 is 1020 nM.

With `COc1ccc(CNc2ncnc3sccc23)cc1` as the compound, how does the AC50 read?
Its AC50 is 1660 nM.

How did the AC50 turn out when `C[C@H]1CCC/C=C/[C@@H]2C[C@H](O)C[C@H]2[C@@H](O)/C=C/C(=O)O1` was run?
The AC50 was 2170 nM.

`COc1ccccc1NC(=O)Nc1nc(C(N)Cc2ccc(C(F)(F)F)cc2)cs1` (centres undefined) was tested. Which AC50 did it give?
Its AC50 is 10300 nM.

`CCCCCCN1C[C@@H](n2cc(-c3ccc(F)cc3)nn2)[C@H](O)C[C@@H]1c1ccc(Cl)cc1` was tested. Which AC50 did it give?
Its AC50 is 12500 nM.

With `Cn1cc([N+](=O)[O-])c(C(=O)Nc2cc(Oc3ccccc3)cc([N+](=O)[O-])c2)n1` as the compound, how does the AC50 read?
The AC50 was 5410 nM.

Which AC50 does the source give for `COc1ccc(-c2coc3c(C(=O)NCc4ccc(OC)c(OC)c4)cccc23)c(C)c1` here?
The AC50 was 722 nM.

Which AC50 does the source give for `O=C(Nc1ccc(N2CCOCC2)cc1)c1ccc(Cl)c(S(=O)(=O)N2CCCCC2)c1` here?
Its AC50 is 810 nM.

`OC1(c2ccc(OC(F)F)cc2)CSC(=Nc2cccnc2)N1C1CC1` (centres undefined) was tested. Which AC50 did it give?
Its AC50 is 5400 nM.

Which AC50 does the source give for `Cc1cccc(-n2ncc(Cl)c(Cl)c2=O)c1` here?
The AC50 was 5800 nM.

How did the AC50 turn out when `COc1ccc(-c2nsc3c(N4CCCCC4C)ncnc23)cc1` (centres undefined) was run?
The AC50 was less than 260 nM.

`CC(C)C[C@@H](CN1CCCC1CN1C(=S)NC[C@@H]1Cc1ccc(O)cc1)N1C[C@H](Cc2ccc(O)cc2)N(CC2CCCCCC2)C1=S` (some centres undefined) was tested. Which AC50 did it give?
The AC50 was 18800 nM.

With `COC(=O)[C@@]12CCCCN1[C@H](c1ccc(SC3CCCCC3)c(OC)c1)[C@@H]1C(=O)N(C)C(=O)[C@@H]12` as the compound, how does the AC50 read?
The AC50 was 21400 nM.

`COc1cccc(CNc2nc(NCC3CC3)nc3ccsc23)c1` was tested. Which AC50 did it give?
Its AC50 is 5860 nM.

Which AC50 does the source give for `CC(=O)c1ccc(N2CCN(S(=O)(=O)c3ccc(-c4cnc(C5CC5)o4)cc3)CC2)cc1` here?
Its AC50 is 5950 nM.

With `CCN(CC)Cc1c(O)ccc2c1O/C(=C\C=C\c1ccccc1)C2=O` as the compound, how does the AC50 read?
Its AC50 is 1960 nM.

`CCCCCn1c(=O)c(C(=O)Nc2cnccn2)c(O)c2ccccc21` was tested. Which AC50 did it give?
The AC50 was 1540 nM.

With `Cc1nnc(NC(=O)c2nc(S(=O)(=O)Cc3ccccc3C)ncc2Cl)s1` as the compound, how does the AC50 read?
Its AC50 is 812 nM.

With `Cc1ccc2c(c1)c(C1=c3ccccc3=NC1=O)c(O)n2C` as the compound, how does the AC50 read?
The AC50 was 8850 nM.

Which AC50 does the source give for `O=C1C(=C(c2ccccc2)N2CCOCC2)Cc2ccccc21` here?
Its AC50 is 999 nM.

Which AC50 does the source give for `Cc1ccc(NC(=O)c2nc(S(=O)(=O)Cc3ccccc3C)ncc2Cl)cc1C` here?
The AC50 was 486 nM.

`CC1(C)CC2CC(C)(CN2c2ncnc3ccc(Br)cc23)C1` (centres undefined) was tested. Which AC50 did it give?
The AC50 was 2110 nM.

With `Oc1c(C(c2ccccc2Cl)N2CCCC2)ccc2cccnc12` (centres undefined) as the compound, how does the AC50 read?
The AC50 was 5770 nM.

For `COc1ccc(Oc2cc(NC(=O)c3nn(C)cc3[N+](=O)[O-])cc([N+](=O)[O-])c2)cc1`, which AC50 is on record?
The AC50 was 813 nM.

Which AC50 does the source give for `CC(C)CC(NC(=O)c1ccc(Cl)cc1)C(=O)OCC(=O)c1ccc2c(c1)NC(=O)CO2` (centres undefined) here?
The AC50 was 4010 nM.

For `O=C(Nc1nc(-c2ccccn2)cs1)c1cccc(S(=O)(=O)N2CCOCC2)c1`, which AC50 is on record?
Its AC50 is 1520 nM.

How did the AC50 turn out when `O=C(Nc1ccc(Cl)c(Cl)c1)Nc1ccc(N2CCCC2)c(S(=O)(=O)Nc2ccccc2Cl)c1` was run?
Its AC50 is 5130 nM.

Which AC50 does the source give for `OC[C@@H]1CN(Cc2ccncc2)C[C@H](n2cnc3c(N4CCN(c5ccccc5)CC4)ncnc32)O1` here?
Its AC50 is 2380 nM.

`Cc1[nH]nc2c1-c1nc3ccccc3nc1C(C)(C)C2` was tested. Which AC50 did it give?
Its AC50 is 4200 nM.

With `Cc1cc(CN2CCOCC2)c(O)c(C2(C)CCCCC2)c1` as the compound, how does the AC50 read?
The AC50 was 32300 nM.

`Cc1ccc(S(=O)(=O)N2CCN(c3ncnc4sccc34)CC2)cc1` was tested. Which AC50 did it give?
The AC50 was 2720 nM.

How did the AC50 turn out when `OC(c1cc(-c2ccc(C(F)(F)F)cc2)nc(C(F)(F)F)c1)C1CCCCN1` (centres undefined) was run?
The AC50 was 4730 nM.

For `CCOC(=O)c1c(C)[nH]c(C)c1C(=O)CSc1nc2ccccc2c(=O)n1-c1ccc(CC)cc1`, which AC50 is on record?
The AC50 was 5360 nM.

How did the AC50 turn out when `Oc1ccc(-c2csc(Nc3cccc4ccccc34)n2)cc1O` was run?
Its AC50 is 1580 nM.

How did the AC50 turn out when `C#CC(=O)N(c1cccc(OC)c1)C(C(=O)NC1CCCC1)c1cccs1` (centres undefined) was run?
The AC50 was 3800 nM.

For `CCOc1ccc(-c2nnc(N3CCCCC3)c3ccccc23)cc1`, which AC50 is on record?
The AC50 was 14900 nM.

With `CCOC(=O)CS(=O)(=O)c1nc(-c2ccc(F)cc2)cc(C(F)(F)F)n1` as the compound, how does the AC50 read?
Its AC50 is 1780 nM.

Which AC50 does the source give for `Cc1cc(C)c2nc(NNC(=O)c3ccc(S(=O)(=O)N4CCc5ccccc5C4)cc3)sc2c1` here?
Its AC50 is 1980 nM.

With `O=C(Nc1nc2cc3c(cc2s1)OCCO3)C1=COCCO1` as the compound, how does the AC50 read?
Its AC50 is 2170 nM.

How did the AC50 turn out when `CCN1CCN(Cc2ccc(NC(=O)c3cc(NC(=O)c4cncc(-c5ccc(C#N)cc5)c4)cc(OC)c3)cc2C(F)(F)F)CC1` was run?
The AC50 was 3360 nM.

Which AC50 does the source give for `Cc1ccc(S(=O)(=O)Nc2ccc3ncccc3c2)cc1` here?
The AC50 was 2200 nM.

Which AC50 does the source give for `CCOc1cc(S(=O)(=O)NCc2ccncc2)ccc1Cl` here?
Its AC50 is less than 260 nM.

Which AC50 does the source give for `Cc1ccc(S(=O)(=O)N2[C@H](c3cccc(Cl)c3)CC(=O)[C@@H]3CN(S(=O)(=O)c4ccccc4C)[C@H](c4ccc(Cl)cc4)C[C@@H]32)cc1` here?
The AC50 was 289 nM.

How did the AC50 turn out when `S=C(Nc1ccccc1)Nc1ccc(OCc2ccc(Cl)cc2Cl)cc1` was run?
Its AC50 is 405 nM.

`O=C(c1ccccc1)C(CN1CCCC1)c1ccccc1` (centres undefined) was tested. Which AC50 did it give?
The AC50 was 10700 nM.

Which AC50 does the source give for `Cc1ccc(-n2ncc3c(N4CCN(c5ccc(F)cc5)CC4)ncnc32)c(C)c1` here?
The AC50 was 3240 nM.

For `CCCC(=O)NC(c1cccs1)c1cc(Cl)c2cccnc2c1O` (centres undefined), which AC50 is on record?
Its AC50 is 3160 nM.

`COCCOc1nc2c(c(=O)n(C)c(=O)n2C)n1Cc1cccc(OC)c1` was tested. Which AC50 did it give?
The AC50 was 2230 nM.

For `COc1cnc(-c2ccccn2)nc1N(C)c1ccccc1`, which AC50 is on record?
Its AC50 is 1830 nM.

With `CC(C)Cn1c(N)c(C(=O)COC(=O)CC23CC4CC(CC(C4)C2)C3)c(=O)n(C)c1=O` as the compound, how does the AC50 read?
The AC50 was 1510 nM.

`COCOCCn1cc(CN2CCS(=O)(=O)N(Cc3ccc(-c4ccc(Cl)c(Cl)c4)cc3)C(C(C)C)C2=O)nn1` (centres undefined) was tested. Which AC50 did it give?
Its AC50 is 1350 nM.

How did the AC50 turn out when `CCOC(=O)c1cnc(-n2nc(C)cc2C)nc1NNc1nc(-c2ccccc2)cc(-c2ccccc2)n1` was run?
Its AC50 is 3840 nM.

Which AC50 does the source give for `O=C1CC(Sc2nnc(-c3ccccc3O)o2)C(=O)N1c1ccccc1` (centres undefined) here?
Its AC50 is 12900 nM.
